In patent US20050165218A1, “Crystal structure of the ligand binding domain of the retinoic acid-related orphan receptor alpha (ror-alpha)” (priority 2002, published 2005):
Counter-ions that a name gives are not always drawn.

How the values were obtained:
RORα [1] = biological target: T1, RORα (Homo sapiens, UniProt P35398); assay: RORE reporter transcription in cells partially depleted of cholesterol (HPCD plus lovastatin, LDL-free serum); conditions: for Transcription of the RORE reporter in response to compound (in words): HPCD and lovastatin treated cells, compared to vehicle; for fold induction at 10 µM: read-out: Fold induction (ROR alpha transcriptional activity)
T1 sequence (P35398 1-556 isoform P35398-1): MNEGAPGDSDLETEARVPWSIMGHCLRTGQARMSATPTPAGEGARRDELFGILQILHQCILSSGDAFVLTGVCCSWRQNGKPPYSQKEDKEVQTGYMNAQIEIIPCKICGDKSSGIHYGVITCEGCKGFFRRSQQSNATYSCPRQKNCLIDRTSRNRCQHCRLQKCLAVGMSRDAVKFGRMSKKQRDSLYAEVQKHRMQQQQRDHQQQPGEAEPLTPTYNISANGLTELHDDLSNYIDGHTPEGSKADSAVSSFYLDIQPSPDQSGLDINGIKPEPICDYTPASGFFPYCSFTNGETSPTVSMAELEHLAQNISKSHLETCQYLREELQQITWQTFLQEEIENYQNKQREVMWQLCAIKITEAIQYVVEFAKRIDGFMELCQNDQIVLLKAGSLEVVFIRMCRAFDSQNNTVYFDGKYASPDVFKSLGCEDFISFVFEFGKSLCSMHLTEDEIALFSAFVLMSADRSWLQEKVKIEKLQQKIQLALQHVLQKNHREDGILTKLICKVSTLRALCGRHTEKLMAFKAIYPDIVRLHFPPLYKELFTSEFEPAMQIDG
Text: We next establish whether in eukaryotic cells partially depleted of cholesterol, RORα transcriptional activity can be reconstituted by addition of cholesterol. We therefore treat the cells with hydroxypropyl-β-cyclodextrin (HPCD), a cyclodextrin derivative known to function as a cholesterol shuttle. HPCD treatment is used in experiments aiming at the partial depletion of intracellular cholesterol. In order to prevent an increase of intracellular cholesterol through the activation of the mevalonate pathway, cells are also treated with lovastatin while they are fed with a medium containing LDL-free serum.

RORα-LBD = biological target: T2, RORα-LBD (Homo sapiens, UniProt P35398); assay: Ligand exchange screening by mass spectrometry (ESI Q-Tof, non-covalent complexes); format: binding; conditions: for Displacement of cholesterol bound to the ROR-LBD (mass spectrometry): 10-fold molar excess of ligand, overnight at 4° C., protein 135 μM
T2 construct: (His)6RORα-LBD269-556 is produced in Sf9 cells; (His)6 (N); made in house; host or cells: Sf9 insect cells
T2 sequence (P35398 269-556 isoform P35398-1): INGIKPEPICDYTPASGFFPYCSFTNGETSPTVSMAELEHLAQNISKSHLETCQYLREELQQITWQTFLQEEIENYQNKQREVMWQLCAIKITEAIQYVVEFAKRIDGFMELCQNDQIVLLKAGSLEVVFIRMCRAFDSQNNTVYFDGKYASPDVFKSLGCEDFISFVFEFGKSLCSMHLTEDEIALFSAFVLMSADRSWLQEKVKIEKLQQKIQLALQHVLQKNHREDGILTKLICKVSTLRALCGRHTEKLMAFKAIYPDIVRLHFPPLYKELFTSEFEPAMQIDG
Experimental: (His)6RORα-LBD269-556 is produced in Sf9 cells and purified by Ni-NTA chromatography followed by size exclusion chromatography. The protein in Tris-HCl buffer at a concentration of 135 μM is incubated overnight at 4° C., with a 10-fold molar excess of 25-hydroxycholesterol (5-cholesten-3beta, 25-diol) or cholesterol sulfate (5-cholesten-3beta-ol-sulfate). Prior to mass spectrometry analysis, the protein is subjected to fast buffer exchange in 50 mM ammonium acetate pH 7.0 by size exclusion chromatography using disposable Centri∘Spin 20 columns (Princeton Separations, Adelphia, N.J.) according to manufacturer′s instructions. Mass spectrometry is carried out using a Q-Tof (Micromass, Manchester, UK) quadrupole time-of-flight hybrid tandem mass spectrometer equipped with a Micromass Z-type electrospray ionization source (ESI). The acquisition mass range is typically m/z 1500-4500 in 5 seconds. The mass spectrometer is tuned in order to allow detection of multiply-charged species of non-covalent complexes. The source block temperature and desolvation temperature are kept at 50° C. and 80° C., respectively. Sample cone voltage (Vc) is set to 23 volts for standard measurements. In-source induced fragmentation experiments are performed by increasing Vc up to 100 volts. The protein solution is infused at a flow rate of 10 μl/min. Data are recorded and processed using Masslynx software. Spectra are deconvoluted using MaxEnt analysis software (Micromass, Manchester, UK).
Generation of the construct (His)6RORα-LBD270-523, fermentation and purification are done as described above. […] The resulting solution is incubated overnight at 37° C. and further purified by size exclusion chromatography on a SPX75 column, before concentrating to 17.6 mg/ml for crystallization trials. MS determination of the native complex is done as described previously (Kallen et al., Structure, Vol.10, 1697-1707, 2002). A control experiment is done by incubating the same amount of RORα LBD protein with 5% DMSO under identical conditions. The protein concentration is approximately 15 μM in 50 mM AcONH4, pH 7.0. Both spectra are recorded under identical conditions with Vc=20 volts.

RORα [2] = biological target: T1, RORα; assay: Screen of cholesterol derivatives for binding of RORα to the RORE in essentially cholesterol-free medium; conditions: baculovirus-expressed RORα
Text: The substances identified by rational design can be further analyzed in drug screening assay. The drug screening assays of the present invention may use any of a number of assays for measuring the functionality of RORα, including for the ability of RORα following ligand binding to transcriptionally regulate a gene, by increasing phosphorylation of RORα, by allowing RORα to dimerize or to heterodimerize with another nuclear receptor, by improving its ability to interact with co-activators, by changing its conformation and by increasing its ability to bind DNA. In one binding assay, a nucleic acid containing a RORα binding site is placed on a coated or onto a solid support. A preferred binding site is a response element (RORE) composed of a 6 bp AT rich motif immediately preceding a half site AGGTCA and the possible variants of this response element that are given in Giguere et al. 1994, Genes & Development 8:538-553, Mc Broom et al. 1995 Mol.Cell. Biol. 15: 796-808, Moraitis & Giguere, 1999; Molecular Endocrinology. 13:431-439. Methods for placing the nucleic acid on the solid support are well known in the art and include linking biotin to the nucleic acid and linking avidin to the solid support. The RORα is allowed to equilibrate with the nucleic acid and drugs are tested to see if they disrupt or enhance the binding. […]

RORα [3] = biological target: T1, RORα; assay: RORE-tk-luc luciferase reporter assay in U2OS cells in essentially sterol free medium, fluvastatin treatment; format: cell-based
Experimental: Mammalian cells receive cholesterol by uptake from lipoproteins (LDL-cholesterol) and are able to synthesize cholesterol through the mevalonate pathway. In a situation where cells are cultured under conditions essentially sterol free, a key transcription factor, SREBP will be proteolytically cleaved and this releases a transcription factor to the nucleus. This transcription factor is able to transcriptionally activate HMG-CoA reductase, which is a critical step in the cholesterol biosynthesis through the mevalonate pathway. Statins, which are know drugs for hypercholesterol state are specific inhibitors of the HMG-CoA reductase. When cells are cultivated in sterol free medium, their HMG-CoA reductase is strongly activated. In this experiment cells, cultivated in medium essentially sterol free, are treated with fluvastatin. […] U2OS cells are transfected with expression vector for RORα (ROR) together with a luciferase reporter gene bearing a consensus response element for RORα (RORE-tk-luc). Luciferase activity is assayed in cells from 6 well plates and related to the activity in cells transfected with or without treatment with fluvastatin. The results are normalized to the protein content.

[4] = compounds 10 μM, cells treated with HPCD and lovastatin, LDL-free serum, control = 1

SMILES | Fold induction (ROR alpha transcriptional activity) (RORα [1]; 10 µM) | Transcription of the RORE reporter in response to compound (in words) (RORα [1]) | fold induction at 10 µM (RORα [1]) | also measured
C[C@@H](CO)CCC[C@@H](C)[C@H]1CC[C@H]2[C@@H]3CC=C4C[C@@H](O)CC[C@]4(C)[C@H]3CC[C@]12C [27-OH-Chol] | 1.5 | – | – | –
CC(C)CC[C@@H](O)[C@@H](C)[C@H]1CC[C@H]2[C@@H]3CC=C4C[C@@H](O)CC[C@]4(C)[C@H]3CC[C@]12C [22(R)-OH-Chol] | 1.2 | – | – | –
CCC(CC[C@@H](C)[C@H]1CC[C@H]2[C@@H]3CC=C4C[C@@H](OC(C)=O)CC[C@]4(C)[C@H]3CC[C@]12C)C(C)C (stereo partly drawn) [5-Cholesten-24beta, 5-Cholesten-24β-ethyl-3β-ol acetate] | 1 | does not trigger any increase | – | –
CC(C)CCC[C@@H](C)[C@H]1CC[C@H]2[C@@H]3CC[C@H]4C[C@@H](O)CC[C@]4(C)[C@H]3CC[C@]12C [Cholestanol] | – | stimulated | – | Fold induction (ROR alpha transcriptional activity) (RORα [1]; [4]): 2.4
CC(C)CCC[C@](C)(O)[C@H]1CC[C@H]2[C@@H]3CC=C4C[C@@H](O)CC[C@]4(C)[C@H]3CC[C@@]21C [20(S)-OH-Chol] | 1.2 | – | – | –
CC(C)CCC[C@@H](C)[C@H]1CC[C@H]2[C@@H]3CC=C4C[C@@H](OS(=O)(=O)O)CC[C@]4(C)[C@H]3CC[C@]12C [Chol. Sulfate, 5-cholesten-3beta-ol-sulfate] | – | – | 5.4 | Exchange of cholesterol by cholesterol-sulfate, MS-analysis (RORα-LBD; 1.0 mM ligand, 73 μM (His)6RORαLBD270-523, overnight at 37° C.): confirmed by MS-analysis; Displacement of cholesterol bound to the ROR-LBD (mass spectrometry) (RORα-LBD; listed as cholesterol sulfate): able to fully displace cholesterol; Displacement of cholesterol bound to the ROR-LBD (mass spectrometry) (RORα-LBD; listed as cholesterol-sulfate): could be exchanged with cholesterol-sulfate; Stability of ligand/ROR-LBD complex versus in-source collisions at various cone-voltages (RORα-LBD; compared with apo-ROR-LBD, Vc up to 100 volts): more stable; Displacement of cholesterol (RORα binding to RORE screen) (RORα [2]): able to displace cholesterol
C[C@H](CCCC(C)(C)O)[C@H]1CC[C@H]2[C@@H]3CC=C4C[C@@H](O)CC[C@]4(C)[C@H]3CC[C@]12C [25-OH-Chol, 5-cholesten-3beta, 25-diol] | – | – | 1.6 | Displacement of cholesterol bound to the ROR-LBD (mass spectrometry) (RORα-LBD): able to fully displace cholesterol
CC(C)CCC[C@@H](C)[C@H]1CC[C@H]2C3=CC=C4C[C@@H](O)CC[C@]4(C)[C@H]3CC[C@]12C [7-Dehydrochol, 7-Dehydrocholesterol] | – | – | – | Fold induction (ROR alpha transcriptional activity) (RORα [1]; [4]): 4.6
CC(C)CCC[C@@H](C)[C@H]1CC[C@H]2[C@@H]3CC=C4C[C@@H](O)CC[C@]4(C)[C@H]3CC[C@]12C [Cholesterol, cholest-5-en-3beta-ol] | – | stimulated | 3.3 | –
CC(C)CCC[C@@H](C)[C@H]1CC[C@H]2[C@@H]3CC=C4C[C@H](O)CC[C@]4(C)[C@H]3CC[C@]12C [Epicholesterol, 5-Cholesten-3α-ol] | – | stimulated | 2.8 | –
CC(C)n1c(/C=C/C(O)CC(O)CC(=O)O)c(-c2ccc(F)cc2)c2ccccc21 (stereo not shown) [Fluvastatin] | – | – | – | fold induction at 5 µM (RORα [3]; fluvastatin +5 μM, paired control 76, read-out: Fold induction (RORα transcriptional activity, luciferase)): 48; fold induction at 10 µM (RORα [3]; fluvastatin +10 μM, paired control 93, read-out: Fold induction (RORα transcriptional activity, luciferase)): 38
